# In patent US20250129096A1, “ANNULATED 2-AMINO-3-CYANO THIOPHENES AND DERIVATIVES FOR THE TREATMENT OF CANCER” (Boehringer Ingelheim Int'l GmbH Corp., priority 2021, published 2025):
# Experiments:
# [1] = molecular target: T1, CYP3A4 (Homo sapiens, UniProt P08684); test: Mechanism based inhibition of CYP3A4 assay (MBI 3A4); type: in vitro ADME; conditions: 25 uM, hydroxy-midazolam formation after 30 min preincubation relative to 0 min, human liver microsomes
# T1 construct: assayed in human liver microsomes (0.02 mg/mL) with midazolam (15 μM) as a substrate; from tissue; host or cells: human liver microsomes
# T1 sequence (P08684 whole entry): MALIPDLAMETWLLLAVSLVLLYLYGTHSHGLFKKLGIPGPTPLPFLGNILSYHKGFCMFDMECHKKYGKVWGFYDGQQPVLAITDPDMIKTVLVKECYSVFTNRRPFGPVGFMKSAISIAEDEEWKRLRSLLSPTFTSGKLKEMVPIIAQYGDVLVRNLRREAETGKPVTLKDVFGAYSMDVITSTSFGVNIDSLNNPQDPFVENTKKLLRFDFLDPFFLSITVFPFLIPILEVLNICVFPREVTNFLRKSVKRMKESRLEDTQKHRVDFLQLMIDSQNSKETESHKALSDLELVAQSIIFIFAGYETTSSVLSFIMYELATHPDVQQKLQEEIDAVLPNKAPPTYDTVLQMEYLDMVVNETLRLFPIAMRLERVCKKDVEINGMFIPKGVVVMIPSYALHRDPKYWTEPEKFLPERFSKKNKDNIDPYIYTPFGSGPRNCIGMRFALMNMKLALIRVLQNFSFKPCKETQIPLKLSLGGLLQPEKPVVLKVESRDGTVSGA
# Description: After preincubation, the incubate is diluted 1:10 and the substrate midazolam is added for the main incubation (15 min). The main incubation is quenched with acetonitrile and the formation of hydroxy-midazolam is quantified via LC/MS-MS. The formation of hydroxy-midazolam from the 30 min preincubation relative to the formation from the 0 min preincubation is used as a readout. Values of less than 100% mean that the substrate midazolam is metabolized to a lower extent upon 30 min preincubation compared to 0 min preincubation. In general low effects upon 30 min preincubation are desired (corresponding to values close to 100%/not different to the values determined with water control).
# [2] = test system: NCI-H2122 cells (NSCLC, G12C); test: NCI-H2122 CTG proliferation assay (120 h); type: cell-based; conditions: Homo sapiens, CellTiter-Glo
# Description: The CTG assay is designed to measure quantitatively the proliferation of NCI-H2122 cells (ATCC CRL-5985), using the CellTiter Glow Assay Kit (Promega G7571). Cells are grown in RPMI medium (ATCC) supplemented with Fetal Calf Serum (Life Technologies, Gibco BRL, Cat. No. 10270-106). On “day 0” 200 NCI-H2122 cells are seeded in 60 μL RPMI ATCC+10% FCS+ Penstrep in a black 384-well plate, flat and clear bottom (Greiner, PNr. 781091). Cells are then incubated in the plates at 37° C. in a CO2 incubator overnight. On day 1, compounds (10 mM stock in DMSO) are added with the ECHO acoustic liquid handler system (Beckman Coulter), including DMSO controls. Plates are incubated for 120 h, and cell viability is measured using CellTiter-Glo luminescent cell viability reagent (Promega product code G7570). Viability (stated as percent of control) is defined as relative luminescence units RLU of each well divided by the RLU of cells in DMSO controls. IC50 values are determined from viability measurements by non-linear regression using a four-parameter model.
# [3] = molecular target: T2, KRAS (WT)::SOS1 (Homo sapiens, UniProt P01116, C118S); test: KRAS::SOS1 AlphaScreen binding assay, KRAS WT
# T2 construct: KRAS (WT) 1-169, N-terminal 6His-tag for purification, cleaved off; 6His-tag (N, cleaved yes); TEV cleavage site
# T2 sequence (P01116 1-169 isoform P01116-2 C118S): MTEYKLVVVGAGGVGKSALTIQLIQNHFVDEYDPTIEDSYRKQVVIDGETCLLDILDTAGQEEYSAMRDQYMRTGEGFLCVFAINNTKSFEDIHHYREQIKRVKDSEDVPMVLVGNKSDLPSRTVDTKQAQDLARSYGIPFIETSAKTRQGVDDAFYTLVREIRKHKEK
# Description: (§1) Low IC50 values in this assay setting are indicative of strong inhibition of protein-protein interaction between SOS1 and KRAS:
# (§2) These assays measure the inhibitory effect of compounds on KRAS mutant protein-protein interactions using the Alpha Screen technology by Perkin Elmer.
# (§3) For the chosen highest assay concentration of 100 μM, 150 nL of compound solution are transferred from a 10 mM DMSO compound stock solution. A series of eleven fivefold dilutions per compound are transferred to the assay plate, compound dilutions are tested in duplicates. DMSO are added as backfill to a total volume of 150 nL.
# (§4) The assays run on a fully automated robotic system in a darkened room below 100 Lux. To 150 nl of compound dilution 10 μl of a mix including KRAS mutant protein, SOS1 (final assay concentrations see above) and GDP nucleotide (Sigma G7127; final assay concentration 10 μM) in assay buffer (1×PBS, 0.1% BSA, 0.05% Tween 20) are added into columns 1-24. After 30 minutes incubation time 5 μl of Alpha Screen bead mix in assay buffer are added into columns 1-23.
# (§5) Plates are kept at room temperature in a darkened incubator. After an additional 60 minutes incubation time the signal is measured in a PerkinElmer Envision HTS Multilabel Reader using the AlphaScreen specs from PerkinElmer.
# (§6) IC50 values are calculated and analyzed with Boehringer Ingelheim's MEGALAB IC50 application using a 4 parametric logistic model.
# [4] = test system: NCI-H358 cells (NSCLC, G12C); test: NCI-H358 CTG proliferation assay (120 h), assay 2; type: cell-based; conditions: Homo sapiens, CellTiter-Glo, 384-well, 200 cells per well
# Description: NCI-1H358 cells (ATCC No. CRL-5807) are dispensed into white bottom opaque 96 well plates (Perkin Elmer cat no. 5680) at a density of 2000 cells per well in 100 μL RPM 1-1640 ATCC-Formulation (Gibco #A10491)+10% FCS (fetal calf serum) (assay 1) or into black 384-well plates, flat and clear bottom (Greiner, PNr. 781091) at a density of 200 cells per well in 60 μl RPMI-1640 ATCC-Formulation (Gibco #A10491)+10% FCS (fetal calf serum) (assay 2). […] Compounds (10 mM stock in DMSO) are added at logarithmic dose series using the HP Digital Dispenser D300 (Tecan) (assay 1) or the ECHO acoustic liquid handler system (Beckman Coulter) (assay 2), normalizing for added DMSO and including DMSO controls. For the TO time point measurement, untreated cells are analyzed at the time of compound addition. Plates are incubated for 120 h, and cell viability is measured using CellTiter-Glo luminescent cell viability reagent (Promega product code G7570). Viability (stated as percent of control) is defined as relative luminescence units RLU of each well divided by the RLU of cells in DMSO controls. IC50 values are determined from viability measurements by non-linear regression using a four-parameter model.
# [5] = molecular target: T3, KRAS (G12V)::SOS1 (Homo sapiens, UniProt P01116, C118S/G12V); test: KRAS::SOS1 AlphaScreen binding assay, KRAS G12V
# T3 construct: KRAS (G12V) 1-169, N-terminal 6His-tag, for purification, cleaved off; 6His-tag (N, cleaved yes); TEV cleavage site
# T3 sequence (P01116 1-169 isoform P01116-2 G12V/C118S): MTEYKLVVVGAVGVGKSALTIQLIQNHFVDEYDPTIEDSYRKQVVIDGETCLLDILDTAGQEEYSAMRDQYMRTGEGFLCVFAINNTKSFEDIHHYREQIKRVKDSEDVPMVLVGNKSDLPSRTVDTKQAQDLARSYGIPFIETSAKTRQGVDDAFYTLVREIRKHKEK
# Description: as §1, §2, §3, §4, §5, §6
# [6] = test system: GP2D cells (colorectal cancer, G12D); test: GP2D proliferation assay (120 h); type: cell-based; conditions: CellTiter-Glo
# Description: GP2D cells (ATCC No. CRL-5807) are dispensed into white 384-well plates, flat and white bottom (Perkin Elmer, 6007680) at a density of 500 cells per well in 40 μl DMEM (Sigma, D6429)+1× GlutaMAX (Gibco, 35050038)+10% FCS (fetal calf serum). […] Compounds (10 mM stock in DMSO) are added at logarithmic dose series using the HP Digital Dispenser D300 (Tecan), including DMSO controls and normalizing for added DMSO. For the TO time point measurement, untreated cells are analyzed at the time of compound addition. Plates are incubated for 120 h, and cell viability is measured using CellTiter-Glo luminescent cell viability reagent (Promega product code G7570). Viability (stated as percent of control) is defined as relative luminescence units RLU of each well divided by the RLU of cells in DMSO controls. IC50 values are determined from viability measurements by non-linear regression using a four-parameter model.
MBI 3A4 [1] [%],IC50 [2] [nM],IC50 [3] [nM],IC50 [4] [nM],IC50 [5] [nM],IC50 [6] [nM],Structure (SMILES)
65,6360,12,–,–,–,"C[C@H]1CNCCCN1c1nccc(-c2noc3c2CCC[C@@]32CCCc3sc(N)c(C#N)c32)n1 (single isomer, unassigned) [IIb-5]"
–,3920,–,–,–,–,CC1Cc2c(-c3ccnc(N4CCCNC[C@@H]4C)n3)noc2C2(CCCc3sc(N)c(C#N)c32)C1 (some centres unmarked) [IIb-1]
–,4850,–,–,–,–,C[C@H]1CNCCCN1c1nccc(-c2noc3c2CC(F)(F)CC32CCCc3sc(N)c(C#N)c32)n1 (some centres unmarked) [IIb-2]
69,–,7,743,2,171,C[C@H](Oc1ccnc(-c2noc3c2CCC[C@@]32CCCc3sc(N)c(C#N)c32)n1)[C@@H]1CCCN1C [IIb-3]
–,4020,–,–,–,–,C[C@H]1CNCCCN1c1nccc(-c2noc3c2CSCC32CCCc3sc(N)c(C#N)c32)n1 (some centres unmarked) [IIb-4]
–,1940,–,–,–,–,C[C@H]1CNCCCN1c1nccc(-c2noc3c2OCCC32CCCc3sc(N)c(C#N)c32)n1 (some centres unmarked) [IIb-7]
–,6380,–,–,–,–,C[C@H](Oc1nccc(-c2noc3c2CCC[C@@]32CCCc3sc(N)c(C#N)c32)n1)[C@@]1(C)CCCN1C [IIe-1]
–,8350,–,–,–,–,C[C@@H]1NCCCN(c2nccc(-c3onc4c3CCC[C@@]43CCCc4sc(N)c(C#N)c43)n2)[C@H]1C [Ib-2]
–,> 25000,–,–,–,–,C[C@H]1CNCCCN1c1ncnc(-c2onc3c2CCC[C@@]32CCCc3sc(N)c(C#N)c32)n1 [Ib-4]
–,9460,9,–,8,69,C[C@H]1[C@@H]2CCCN2CCCN1c1nccc(-c2onc3c2CCC[C@@]32CCCc3sc(N)c(C#N)c32)n1 [Id-1]
–,1500,–,–,–,–,CO[C@@H]1C[C@@H]([C@H](C)Oc2nccc(-c3onc4c3CCC[C@@]43CCCc4sc(N)c(C#N)c43)n2)N(C)C1 [Ie-1]
–,1620,–,–,23,526,C[C@H](Oc1nccc(-c2onc3c2CCC[C@@]32CCCc3sc(N)c(C#N)c32)n1)[C@@H]1C[C@@H](F)CN1C [Ie-2]
–,5260,–,1710,–,–,CCN1[C@H]2C[C@H]2C[C@H]1[C@H](C)Oc1nccc(-c2onc3c2CCC[C@@]32CCCc3sc(N)c(C#N)c32)n1 [Ie-3]
–,1220,–,–,–,–,CC(Oc1nccc(-c2onc3c2CCC[C@@]32CCCc3sc(N)c(C#N)c32)n1)C12CCCN1CCC2 (some centres unmarked) [Ie-5]
60,10700,43,2200,201,936,C[C@H]1CNCCCN1c1nccc(-c2onc3c2CCC[C@@]32CCCc3sc(N)c(C#N)c32)n1 [If-1]
–,> 25000,–,–,–,–,C[C@H](Oc1nccc(-c2onc3c2CCC[C@@]32CCCc3sc(N)c(C#N)c32)n1)[C@@H]1C[C@@H]2C[C@@H]2N1 [If-2]
–,7810,–,3570,–,–,C[C@H](Oc1nccc(-c2onc3c2CCC[C@@]32CCCc3sc(N)c(C#N)c32)n1)[C@@H]1C[C@@H]2C[C@@H]2N1C [Ih-1]

Structure (SMILES),MBI 3A4 [1] [%],IC50 [2] [nM],IC50 [3] [nM],IC50 [4] [nM],IC50 [5] [nM],IC50 [6] [nM]
C[C@H]1CNCCN1c1nccc(-c2noc3c2CCC[C@@]32CCCc3sc(N)c(C#N)c32)n1 [IIf-1],–,2860,–,3000,–,228
